The source of these data is US12209135B2, “Anti-CD45 antibodies and conjugates thereof” (priority 2019, dated 2025).

Marks after values point to notes of the source that are not given here.

Series [1] has as its system REH-Luc ALL cells. The series is described as follows: REH-Luciferase ALL xenograft (CDX) model. Format: in vivo, immune deficient mice (NSG-SGM3, or NSG). Particulars: Table 23; 3 mg/kg QWx3. How it is done:
(§1) A panel of models were evaluated to mimic untreated and refractory disease: AML patient derived xenograft (PDX) models (from treatment naïve and relapsed post allogeneic HCT patients; all FLT-3+NPM1+), ALL cells from an immortalized cell line (REH-Luc), and T-ALL patient-derived xenograft (PDX) model (from a patient progressing post DHAP chemotherapy).
(§2) AML #1 was derived from a treatment naïve patient (J000106134) and AML #2 was derived from a heavily pre-treated relapsed refectory patient post allogenic HSCT (J000106132), The T-ALL was derived from a patient progressing post DHAP chemotherapy. The cell line-derived ALL was transduced to express firefly luciferase. Cells of each tumor type were systemically inoculated into immune deficient mice (NSG-SGM3, or NSG).
(§3) Treatment began when peripheral tumor burden of PDX (n=3-5/group), and CDX mice reached 2-16% blast in the peripheral blood or day 5 post implant for the REH-luc model (n=10/group).
Bioluminescence signal was measured using the IVIS imaging system (PerkinElmer). Radiance (mean±SEM) was captured over a time course of the study. Representative bioluminescence signal pseudo colored images were captured on day 22-23 post-implantation for all treatment groups, as shown in FIG. 29C.

The subject of series [2] is T-ALL PDX. As to the kind of experiment: T-ALL patient-derived xenograft (PDX) model. It is filed as in vivo, immune deficient mice (NSG-SGM3, or NSG). Conditions: for Median Survival (Days Post Implant): Table 24. As to the method: as §1, §2, §3
(In general: Xenograft models place foreign cells or tissue in a host animal.)

The subject of series [3] is AML #1 PDX. As to the kind of experiment: AML patient derived xenograft model AML #1 (treatment naïve). It is filed as in vivo, immune deficient mice (NSG-SGM3, or NSG). Particulars: Table 25; 30 mg/kg QDx5. As to the method:
as §1, §2, §3
(§4) In the AML patient derived xenograft (PDX) models from treatment naïve and relapsed post allogeneic […] patients, treatment began when 2-16% blasts were detected in the periphery (n=3-5 mice/group/AML PDX model). Mice were treated with a single intravenous dose of anti-human CD45-ADC (AbA-AM), isotype-ADC, or vehicle (PBS). Ara-c was administered intravenously once daily for five consecutive days.

Series [4] relates to AML #2 PDX. As to the kind of experiment: AML patient derived xenograft model AML #2 (relapsed refractory post allogeneic HSCT). It is filed as in vivo, immune deficient mice (NSG-SGM3, or NSG). Conditions: Table 26; 30 mg/kg QDx5. How it is done: as §1, §2, §3, §4
For series [5] the following is noted: Quintieri et al. 2005; cited from earlier work.

In the case of `COc1cccc2c1C(=O)c1c(O)c3c(c(O)c1C2=O)C[C@@](O)(C(=O)CO)C[C@@H]3O[C@H]1C[C@H](N)[C@H](O)[C@H](C)O1` [Doxorubicin, doxorubicin], in series [1], the “Median Survival (Days Post Implant)” value is given as 50^† Days.

As to `Nc1ccn([C@@H]2O[C@H](CO)[C@@H](O)[C@@H]2O)c(=O)n1` [Ara-C], the “Median Survival (Days Post Implant)” value in series [2] (30 mg/kg QDx5) is given as 77*^† Days; in series [3] it was 97^† Days; in series [4], 60^†‡ Days.

As to `COc1cccc2c1C(=O)c1c(O)c3c(c(O)c1C2=O)C[C@@](O)(C(=O)CO)C[C@@H]3O[C@H]1CC2[C@H](O[C@@H]3[C@@H](OC)OCCN23)[C@H](C)O1` (stereo partly shown) [PNU-159682], in series [5], the “cytotoxicity relative to the parent nemorubicin” value was “greater than 3000 fold”. With `C[C@@H]1C[C@H]2[C@@H]3CCC4=CC(=O)C=C[C@]4(C)[C@@]3(F)[C@@H](O)C[C@]2(C)[C@@]1(O)C(=O)CO` [Dexamethasone, dexamethasone], the “Median Survival (Days Post Implant)” value in series [2] (5 mg/kg Q3Dx9) is recorded as 47*^‡ Days. Moreover, the median survival in series [2] (text b933, AbA-AM1 single injection 3, or 6 mg/kg on day 5, n=5 mice/group) is reported as 47 days.
